Reference: US11319321B2, “[1,2,4]triazolo[1,5-a]pyrimidine compounds as PDE2 inhibitors” (Janssen Pharmaceutica NV, priority 2016, dated 2022)
Where two headings read alike, the source gives them in different places.

Assays:
hPDE3B = test: In vitro assay PDE3 (SPA, 3H-cAMP); assay type: biochemical, human; conditions: 0.4 μM cAMP substrate; for hPDE3B Emax: in % (unit assumed)
[1] = molecular target: T1, Human recombinant PDE2A (hPDE2A) (Homo sapiens, UniProt O00408); test: In vitro assay PDE2A (SPA, 3H-cGMP); assay type: biochemical
T1 construct: made in house; host or cells: Sf9 insect cells (baculovirus)
T1 sequence (O00408 whole entry): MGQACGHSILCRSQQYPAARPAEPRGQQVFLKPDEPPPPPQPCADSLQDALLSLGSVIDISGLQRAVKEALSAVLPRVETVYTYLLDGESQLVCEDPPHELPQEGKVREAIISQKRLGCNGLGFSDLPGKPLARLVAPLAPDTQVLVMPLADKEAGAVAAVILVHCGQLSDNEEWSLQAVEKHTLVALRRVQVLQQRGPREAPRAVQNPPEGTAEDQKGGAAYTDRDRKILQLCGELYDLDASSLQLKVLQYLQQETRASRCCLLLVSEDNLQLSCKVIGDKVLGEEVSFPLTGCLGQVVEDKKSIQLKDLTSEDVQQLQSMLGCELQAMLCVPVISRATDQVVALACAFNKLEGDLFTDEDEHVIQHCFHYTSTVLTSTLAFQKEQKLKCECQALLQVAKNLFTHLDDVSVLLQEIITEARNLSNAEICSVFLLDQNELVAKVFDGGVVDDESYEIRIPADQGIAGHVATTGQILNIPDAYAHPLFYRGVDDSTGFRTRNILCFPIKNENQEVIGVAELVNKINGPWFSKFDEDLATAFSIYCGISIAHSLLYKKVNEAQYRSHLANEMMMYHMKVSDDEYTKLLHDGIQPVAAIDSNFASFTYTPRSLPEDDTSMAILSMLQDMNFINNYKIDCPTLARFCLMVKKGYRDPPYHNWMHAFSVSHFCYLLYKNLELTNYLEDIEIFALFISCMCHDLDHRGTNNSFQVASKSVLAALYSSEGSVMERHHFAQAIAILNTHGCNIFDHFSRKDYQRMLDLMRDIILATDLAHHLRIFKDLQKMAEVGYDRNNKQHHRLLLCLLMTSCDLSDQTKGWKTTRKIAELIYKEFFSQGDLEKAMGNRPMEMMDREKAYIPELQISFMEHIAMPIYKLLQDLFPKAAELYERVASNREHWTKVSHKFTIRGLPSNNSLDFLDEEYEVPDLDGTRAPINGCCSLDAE
Method: Human recombinant PDE2A (hPDE2A) was expressed in Sf9 cells using a recombinant rPDE10A baculovirus construct. Cells were harvested after 48 h of infection and the hPDE2A protein was purified by metal chelate chromatography on Ni-sepharose 6FF. Tested compounds were dissolved and diluted in 100% DMSO to a concentration 100 fold of the final concentration in the assay. Compound dilutions (0.4 μl) were added in 384 well plates to 20 μl of incubation buffer (50 mM Tris pH 7.8, 8.3 mM MgCl2, 1.7 mM EGTA). 10 μl of hPDE2A enzyme in incubation buffer was added and the reaction was started by addition of 10 μl substrate to a final concentration of 10 μM cGMP and 0.01 μCi ^3H-cGMP. The reaction was incubated for 45 minutes at room temperature. […] After sedimentation of the beads during 30 minutes the radioactivity was measured in a Perkin Elmer Topcount scintillation counter and results were expressed as cpm. For blanc values the enzyme was omitted from the reaction and replaced by incubation buffer. Control values were obtained by addition of a final concentration of 1% DMSO instead of compound.

PDE2A = molecular target: T2, PDE2A (Rattus norvegicus, UniProt Q01062); test: PDE2 occupancy by ex-vivo autoradiography with [3H]B-17a; assay type: in vivo; conditions: male Wistar rats, 10 mg/kg SC (subcutaneous), striatum, percentage occupancy, read-out: PDE2 occupancy at 10 mg/kg
T2 construct: Twenty μm-thick striatal sections were cut; from tissue; host or cells: rat brain, striatal sections
T2 sequence (Q01062 1-928): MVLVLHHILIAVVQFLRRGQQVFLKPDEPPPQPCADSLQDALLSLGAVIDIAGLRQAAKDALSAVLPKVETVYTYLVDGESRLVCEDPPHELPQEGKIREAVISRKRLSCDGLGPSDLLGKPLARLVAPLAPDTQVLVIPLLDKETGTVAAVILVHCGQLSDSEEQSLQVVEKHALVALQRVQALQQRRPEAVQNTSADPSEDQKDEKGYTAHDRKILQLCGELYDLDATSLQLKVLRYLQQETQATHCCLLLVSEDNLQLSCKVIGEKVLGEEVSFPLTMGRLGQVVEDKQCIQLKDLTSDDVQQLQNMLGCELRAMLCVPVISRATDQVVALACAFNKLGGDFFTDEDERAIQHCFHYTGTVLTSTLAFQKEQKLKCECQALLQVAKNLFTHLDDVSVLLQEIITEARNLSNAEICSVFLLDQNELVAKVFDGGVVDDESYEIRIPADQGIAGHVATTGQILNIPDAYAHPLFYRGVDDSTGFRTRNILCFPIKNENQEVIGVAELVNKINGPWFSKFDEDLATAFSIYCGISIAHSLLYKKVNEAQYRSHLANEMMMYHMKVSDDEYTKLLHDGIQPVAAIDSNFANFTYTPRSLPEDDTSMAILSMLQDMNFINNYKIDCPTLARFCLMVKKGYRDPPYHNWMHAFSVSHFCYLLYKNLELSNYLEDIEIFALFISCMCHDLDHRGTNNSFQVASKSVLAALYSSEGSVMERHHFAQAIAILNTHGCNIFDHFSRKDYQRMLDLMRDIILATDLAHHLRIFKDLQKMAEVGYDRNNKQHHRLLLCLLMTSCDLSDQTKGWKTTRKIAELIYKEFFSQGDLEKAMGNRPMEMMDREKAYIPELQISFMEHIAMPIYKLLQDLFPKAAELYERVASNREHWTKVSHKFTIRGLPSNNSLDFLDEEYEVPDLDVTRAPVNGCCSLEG
Method: Brains were immediately removed from the skull and rapidly frozen in dry-ice cooled 2-methylbutane (−40° C.).
After thawing, sections were dried under a cold stream of air and incubated for one minute with 30 nM [^3H]B-17a in Tris-HCl (50 mM, pH7.4) containing 0.3% BSA. Brain sections from drug-treated and vehicle-treated animals were incubated in parallel. […] After incubation, the excess of [^3H]B-17a was washed off in ice-cold buffer 2 times 10 minutes, followed by a quick dip in distilled water. The sections were then dried under a stream of cold air.
Brain sections were loaded in a […] (Biospace, Paris) for 4 h and radioactivity emerging from delineated brain area was quantified using the Beta vision program (Biospace, Paris). Specific binding was determined as the difference between total binding in the striatum and non-specific binding in the cerebellum. Percentage receptor occupancy of the drug administered to the animal corresponded to 100% minus the percentage receptor labeled in the treated animal. For the determination of ED50-values, the percentage of receptor occupancy was plotted against dose and the sigmoidal log dose-effect curve of best fit was calculated by non-linear regression analysis, using the GraphPad Prism program.

hPDE10A2 = hPDE10A2 (Homo sapiens, UniProt Q9Y233); test: biochemical; conditions: 60 nM cAMP substrate; for IC50: read-out: hPDE10A2 or rPDE10A2 pIC50 (converted); for Emax: read-out: hPDE10A2 or rPDE10A2 Emax, human clone
Sequence of hPDE10A2 (Q9Y233 267-1055): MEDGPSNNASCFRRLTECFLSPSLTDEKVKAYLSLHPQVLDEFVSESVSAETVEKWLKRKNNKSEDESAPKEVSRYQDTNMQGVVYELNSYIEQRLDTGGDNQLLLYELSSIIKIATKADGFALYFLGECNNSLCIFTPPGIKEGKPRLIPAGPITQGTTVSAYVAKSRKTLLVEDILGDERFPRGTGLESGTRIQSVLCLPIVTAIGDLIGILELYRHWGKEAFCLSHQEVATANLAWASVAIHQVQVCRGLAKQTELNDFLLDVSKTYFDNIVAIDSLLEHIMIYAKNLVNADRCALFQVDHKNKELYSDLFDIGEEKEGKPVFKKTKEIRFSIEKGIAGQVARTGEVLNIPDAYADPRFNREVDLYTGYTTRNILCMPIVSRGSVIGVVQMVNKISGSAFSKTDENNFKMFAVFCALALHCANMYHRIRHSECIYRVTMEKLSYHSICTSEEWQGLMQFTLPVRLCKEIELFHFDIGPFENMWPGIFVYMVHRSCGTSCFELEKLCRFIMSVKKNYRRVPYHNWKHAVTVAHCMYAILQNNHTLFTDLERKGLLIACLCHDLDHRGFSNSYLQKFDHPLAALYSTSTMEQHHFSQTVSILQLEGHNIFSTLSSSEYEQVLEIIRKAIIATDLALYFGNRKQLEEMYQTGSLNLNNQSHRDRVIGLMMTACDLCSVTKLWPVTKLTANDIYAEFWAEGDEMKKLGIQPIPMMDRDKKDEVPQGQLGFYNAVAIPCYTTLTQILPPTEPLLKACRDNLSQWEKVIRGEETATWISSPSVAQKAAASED
Method: Rat recombinant PDE10A (rPDE10A2) was expressed in Sf9 cells using a recombinant rPDE10A baculovirus construct. Cells were harvested after 48 h of infection and the rPDE10A protein was purified by metal chelate chromatography on Ni-sepharose 6FF. Tested compounds were dissolved and diluted in 100% DMSO to a concentration 100 fold of the final concentration in the assay. Human recombinant PDE10A ([…]) was expressed in Sf9 cells using a recombinant hPDE10A baculovirus that was made and amplified in house. Cells were harvested after 72 h of infection and the hPDE10A protein was purified by metal chelate chromatography on Ni-sepharose. Compound dilutions (0.4 μl) were added in 384 well plates to 20 μl of incubation buffer (50 mM Tris pH 7.8, 8.3 mM MgCl2, 1.7 mM EGTA). 10 μl of rPDE10A or hPDE10A enzyme in incubation buffer was added and the reaction was started by addition of 10 μl substrate to a final concentration of 60 nM cAMP and […] ^3H-cAMP. The reaction was incubated for 60 minutes at room temperature. After incubation, the reaction was stopped with 20 μl of stop solution consisting of 17.8 mg/ml PDE SPA (scintillation proximity assay) beads. After sedimentation of the beads during 30 minutes the radioactivity was measured in a Perkin Elmer Topcount scintillation counter and results were expressed as cpm. For blanc values the enzyme was omitted from the reaction and replaced by incubation buffer. Control values were obtained by addition of a final concentration of 1% DMSO instead of compound. A best fit curve is fitted by a minimum sum of squares method to the plot of % of control value substracted with blanc value versus compound concentration and the half maximal inhibitory concentration (IC50) value is derived from this curve.

[2] = hPDE2A pIC50, 10 μM cGMP substrate
[3] = 10 μM cGMP substrate, read-out: hPDE2A pIC50 (converted)

Row | Compound | hPDE3B pIC50 (hPDE3B) | hPDE3B Emax (hPDE3B) | hPDE2A Emax ([1]; 10 μM cGMP substrate) | IC50 [1, 2] [nM] | receptor occupancy at 10 mg/kg (PDE2A) [%] | hPDE10A2 or rPDE10A2 Emax (hPDE10A2; human clone) | IC50 (hPDE10A2; human clone) [nM] | Emax ([1]; 10 μM cGMP substrate) [%] | Emax (hPDE10A2) [%] | IC50 [1, 3] [nM] | IC50 [1] [nM]
1 | Cc1cc(C(C)N2CC[C@@H](C)[C@H](c3cc(C(F)F)nc4ncnn34)C2)cc(C)n1 (single isomer, unassigned) [Compound 1b, 5-(difluoromethyl)-7-[(3 S,4R)-1-[(1S*)-1-(2,6-dimethyl-4-pyridyl)ethyl]-4-methyl-3-piperidyl]-[1,2,4]triazolo[1,5-a]pyrimidine] | <5 | 19 | 100 | 11.7 | 42 | 80 | 2880 |  |  |  | 
2 | COc1ccc(CN2CCC[C@](C)(c3cc(C(F)F)nc4ncnn34)C2)c(OC)c1.Cl (stereo in doubt) [Compound 53] | <5 | 3 |  | 6920 |  |  | > 10000 | 14 | 0 |  | 
3 | C[C@]1(c2cc(C(F)F)nc3ncnn23)CCCN(Cc2ccc(F)c(F)c2)C1.Cl (stereo in doubt) [Compound 54] | <5 | 5 |  |  |  |  | > 10000 | 15 | 9 | ~8910 | 
4 | C[C@@H]1CCN([C@H](C)c2ccc3ncsc3c2)C[C@H]1c1cc(C(F)F)nc2ncnn12 (single isomer, unassigned) [Compound 12] | ~5.07 | 54 |  |  |  |  | 2040 | 99 | 86 |  | 44.7
5 | C[C@@H]1CCN(Cc2cccc(OC(F)F)c2)C[C@H]1c1cc(C(F)F)nc2ncnn12 [Compound 22] | <5 | 42 |  |  |  |  | 7760 | 95 | 61 |  | 562
6 | Cc1cc(CN2CC[C@@H](C)[C@H](c3cc(C(F)F)nc4ncnn34)C2)cc(Cl)n1.Cl [Compound 10] | <5 | 19 |  |  |  |  | 1580 | 96 | 82 |  | 24.5
7 | C[C@H]1CCN(Cc2cc3ccccc3o2)C[C@@H]1c1cc(C(F)F)nc2ncnn12.Cl [Compound 55] | <5 | 40 |  | 2240 |  |  | > 10000 | 25 | 12 |  | 
8 | C[C@@H]1CCN(Cc2ccc(F)c(C(F)(F)F)c2)C[C@H]1c1cc(C(F)F)nc2ncnn12 [Compound 30] | <5 | 21 |  |  |  |  | 7940 | 99 | 55 |  | 490
9 | C[C@@H]1CCN(Cc2ccc(Cl)c(Cl)c2)C[C@H]1c1cc(C(F)F)nc2ncnn12 [Compound 14] | <5 | 39 |  |  |  |  | 2290 | 102 | 80 |  | 56.2
10 | Cc1cc(CN2CC[C@H](C)[C@@H](c3cc(C(F)F)nc4ncnn34)C2)cc(Cl)n1.Cl [Compound 11] | ~5.4 | 71 |  |  |  |  | ~10200 | 19 | 47 |  | 3890
11 | Cc1cc([C@H](C)N2CC[C@@H](C)[C@H](c3cc(C(F)F)nc4ncnn34)C2)cc(C2CC2)n1 (relative stereo) [Compound 2] | <5 | 29 |  |  |  |  | 2950 | 99 | 78 | 87.1 | 
12 | C[C@@H]1CCN(CC2CCOCC2)C[C@H]1c1cc(C(F)F)nc2ncnn12.Cl [Compound 26] | <5 | 12 |  | ~3090 |  |  | > 10000 | 27 | 12 |  | 
13 | C[C@@H]1CCN(Cc2nn(C)c3ccccc23)C[C@H]1c1cc(C(F)F)nc2ncnn12 [Compound 48] | <5 | 23 |  | 977 |  |  | > 10000 | 96 | 37 |  | 
14 | C[C@H]1CCN(CC2CCOCC2)C[C@@H]1c1cc(C(F)F)nc2ncnn12.Cl [Compound 27] | <5 | 3 |  | ~4900 |  |  | > 10000 | 20 | 11 |  | 
15 | C[C@@H]1CCN(Cc2ccc(OC(F)(F)F)cc2)C[C@H]1c1cc(C(F)F)nc2ncnn12 [Compound 23] | 5.14 | 49 |  |  |  |  | 6920 | 97 | 62 | 575 | 
16 | COc1ccc(CN2CC[C@@H](C)[C@H](c3cc(C(F)F)nc4ncnn34)C2)c(OC)c1.Cl [Compound 45] | <5 | 6 |  | 955 |  |  | > 10000 | 49 | 37 |  | 
17 | C[C@@H]1CCN(Cc2ccccc2)C[C@H]1c1cc(C(F)F)nc2ncnn12 [Compound 20] | <5 | 23 |  |  |  |  | > 10000 | 97 | 26 | 457 | 
18 | CC(C)c1ccc(CN2CC[C@@H](C)[C@H](c3cc(C(F)F)nc4ncnn34)C2)cc1 [Compound 18] | 5.1 | 60 |  |  |  |  | 7760 | 98 | 56 |  | 282
